Assay results from patent US20210340130A1, “Compositions and methods for treating attention deficit disorders” (priority 2016, published 2021).
Converted amounts (≈) assume the structure as drawn. Where two headings read alike, the source gives them in different places.

Columns and labels:
[1] = test system: Rat (Lister); test: 5 Choice serial reaction time task; format: in vivo
Excerpt: Another useful animal model for evaluating ampakine activity is the Five Choice Serial Reaction Time Task in Rats. This assay requires rats to provide a single nose poke in response to a light stimulus presented in one of five locations within a 9-hole chamber. With a correct response a reward is delivered that the rat collects from the food magazine at the rear of the chamber. The withdrawal of its head from the food magazine initiates a short inter-trial interval followed by the presentation of the next randomly presented stimulus. An incorrect response results in a time out period (non-reinforcement) followed by the initiation of a new trial. Groups of 12 rats were used in this study, and all rats received all treatments using a randomized sequence. For evaluation using this model, CX1739 was selected as the exemplary low impact ampakine, administered at doses of 3 and 10 mg/kg i.p. 20 min prior to the start of the study.

[2] = test system: non-selective alpha1 adrenergic receptor; test: Radioligand binding, alpha1 adrenergic receptor; details: 100 μM
[3] = test system: 64 GPCRs; test: Cell-based functional GPCR assays (Table 4.2.2-1); details: agonist at 30 μM, antagonist at 37.5 μM; 64 functional GPCR assays
Protocol: Additional studies involving G-protein coupled receptor assays were conducted for CX1739 to further illustrate the scope and flexibility of binding activity profiling available for ampakine screening according to the invention. CX1739 was evaluated in a second broad in vitro pharmacology screen, comprising cell-based functional G-protein coupled receptor assays for 64 GPCRs, identified in Table 4.2.2-1 below.

[4] = Limit of solubility (in ACSF perfusion); format: physicochemical; details: artificial cerebral spinal fluid (ACSF), aqueous buffer, kinetic from dmso stock
[5] = target: cytosolic testosterone receptor (Homo sapiens, UniProt P10275); test: Radioligand binding, testosterone receptor; details: read-out: inhibition of binding of a reference ligand
Sequence of cytosolic testosterone receptor (P10275 whole entry): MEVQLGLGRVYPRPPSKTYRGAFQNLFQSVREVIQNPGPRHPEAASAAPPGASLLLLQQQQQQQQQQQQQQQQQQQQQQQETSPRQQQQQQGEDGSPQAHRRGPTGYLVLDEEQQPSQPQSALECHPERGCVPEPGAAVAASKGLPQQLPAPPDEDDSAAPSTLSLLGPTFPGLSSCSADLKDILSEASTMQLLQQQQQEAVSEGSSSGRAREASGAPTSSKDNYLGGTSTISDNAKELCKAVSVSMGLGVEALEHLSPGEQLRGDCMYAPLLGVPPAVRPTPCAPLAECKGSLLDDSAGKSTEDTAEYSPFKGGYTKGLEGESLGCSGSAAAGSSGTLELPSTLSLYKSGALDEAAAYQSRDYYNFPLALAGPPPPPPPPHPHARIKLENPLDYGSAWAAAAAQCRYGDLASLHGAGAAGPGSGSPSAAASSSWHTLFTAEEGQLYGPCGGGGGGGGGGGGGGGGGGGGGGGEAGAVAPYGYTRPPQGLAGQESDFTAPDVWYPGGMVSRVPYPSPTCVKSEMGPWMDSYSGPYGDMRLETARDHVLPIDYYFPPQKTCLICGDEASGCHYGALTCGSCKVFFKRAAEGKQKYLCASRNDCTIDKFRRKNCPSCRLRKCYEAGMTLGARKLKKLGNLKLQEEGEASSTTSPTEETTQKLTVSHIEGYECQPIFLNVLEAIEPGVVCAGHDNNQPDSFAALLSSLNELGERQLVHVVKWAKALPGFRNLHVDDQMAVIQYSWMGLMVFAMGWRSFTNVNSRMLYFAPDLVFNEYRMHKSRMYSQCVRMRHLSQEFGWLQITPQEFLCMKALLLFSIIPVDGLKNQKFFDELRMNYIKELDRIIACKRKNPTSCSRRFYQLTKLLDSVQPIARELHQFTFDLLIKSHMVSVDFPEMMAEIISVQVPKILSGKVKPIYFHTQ

[6] = test system: Swiss Webster mice; test: PTZ Proconvulsant test; format: in vivo; details: doses of 30 mg/kg or less, p.o.
Protocol: Follow on studies of CX717 and 1739 are continuing, employing additional well-known models for ADHD drug efficacy, coupled with a variety of ongoing safety studies. Preliminary safety studies already completed have included a range of toxicity studies focusing on critical convulsant risks widely observed for previously-studied ampakines. Using the well known PTZ Proconvulsant test, non-GLP safety studies were conducted to examine proconvulsant activity of CX717. Swiss Webster mice (n=12/group) were dosed with CX717 (3, 10 or 30 mg/kg p.o.), vehicle (0.5% methocel p.o.) or a positive control, CGS8216 (10 mg/kg in 70% PEG300: 30% water i.p.). Thirty minutes later, the GABA-A antagonist, pentylenetetrazol (PTZ) was infused in the tail vein until tonic seizures were observed. The time at which the first clonic and tonic seizure was observed was noted and used to determine the dose of PTZ necessary to induce both clonic and tonic seizure.

[7] = test system: Male Sprague-Dawley rats; test: Spontaneous locomotor activity (LMA) and rearing in rats; format: in vivo
Protocol: Behavioral tests of locomotor activity were conducted to determine the effects of exemplary low impact ampakines CX717 and CX1739 on normal, and amphetamine-stimulated activity in animal behavioral models. […] Male Sprague-Dawley rats (175-200 g; Charles River Laboratories) were given ad libitum food and water and maintained on a 12:12 hr light: dark cycle with lights on at 6:00 a.m. Each of ten test cages (standard polycarbonate animal cage; 26 cm×48 cm×20 cm; W×L×H) were surrounded by two photo beam arrays, placed to detect locomotor activity with a lower array and rearing behavior with an upper array. Locomotor and rearing activity were continuously monitored and recorded by computer for all ten test cages (Photo beam Activity System, San Diego Instruments, San Diego, Calif.). The test period was chosen as the 1st few hours of the dark period of the light: dark cycle. Approximately 15 min before the start of the dark cycle, the rats were removed from the housing facility, transported to the testing room and injected with CX717, CX1739 or vehicle and placed into photo beam activity cages. Immediately after all rats were injected the room lights were turned off and spontaneous activity data were collected for the next four hours. CX717 and CX1739 groups (0.1 to 10 mg/kg) were compared to the vehicle group.

[8] = target: acetylcholine esterase (Homo sapiens, UniProt P22303); test: Acetylcholine esterase functional inhibition; format: biochemical
Sequence of acetylcholine esterase (P22303 32-614): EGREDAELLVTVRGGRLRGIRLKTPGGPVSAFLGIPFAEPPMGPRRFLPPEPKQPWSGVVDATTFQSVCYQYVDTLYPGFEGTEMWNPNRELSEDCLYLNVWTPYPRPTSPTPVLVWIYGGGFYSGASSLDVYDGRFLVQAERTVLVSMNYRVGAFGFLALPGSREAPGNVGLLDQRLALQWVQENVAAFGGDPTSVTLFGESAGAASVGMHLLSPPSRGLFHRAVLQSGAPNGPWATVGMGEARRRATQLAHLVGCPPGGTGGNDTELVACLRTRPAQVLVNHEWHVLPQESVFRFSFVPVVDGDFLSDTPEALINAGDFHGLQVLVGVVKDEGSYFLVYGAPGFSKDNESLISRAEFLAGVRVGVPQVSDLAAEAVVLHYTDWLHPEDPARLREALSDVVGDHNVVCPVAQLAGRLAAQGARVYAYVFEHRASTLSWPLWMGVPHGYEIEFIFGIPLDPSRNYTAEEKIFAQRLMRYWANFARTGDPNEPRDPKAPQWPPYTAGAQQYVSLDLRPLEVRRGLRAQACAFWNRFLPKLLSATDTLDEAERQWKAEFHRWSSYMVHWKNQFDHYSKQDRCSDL

[9] = Phase 1 studies (safety, tolerability, pharmacokinetics); format: in vivo

| Compound | latency to correct responses ([1]; 10 mg/kg) | omissions ([1]; 10 mg/kg) | accuracy of responding ([1]; 3 and 10 mg/kg ip) | number of premature responses ([1]; 3 and 10 mg/kg ip) | Minimum Effective Dose ([1]; IP, dose range 3-10 mg/kg) | inhibition of binding of a reference ligand [2] | GPCR agonist and antagonist activity [3] | solubility ([4]; read-out: limit of solubility) | solubility ([4]; read-out: limit of the drug's solubility) | inhibition at 100 µM [5] | proconvulsant activity: dose of PTZ required to elicit a seizure [6] | spontaneous rearing ([7]; 10 mg/kg vs. vehicle, p<0.01) | pharmacodynamics of the effect on rearing behavior ([7]; 10 mpk, 1, 2, 3 and 4 hours post treatment) | spontaneous locomotor activity ([7]; first hour following ip administration, ANOVA=0.45) | Ki [8] | inhibition at 100 µM ([8]; 100 μM) | absorption ([9]; human) | half-life ([9]; human, in vivo, read-out: elimination half-life (t1/2)) | Tmax ([9]; human, in vivo, read-out: time-to-maximum concentration (tmax)) | tolerability in healthy volunteers ([9]; in vivo) |
| --- | --- | --- | --- | --- | --- | --- | --- | --- | --- | --- | --- | --- | --- | --- | --- | --- | --- | --- | --- | --- |
| CN(C(=O)c1ccc2nonc2c1)C1CCOCC1 [CX1739, N-Methyl-N-tetrahydro-2H-pyran-4-yl-[2,1,3]-benzoxadiazole-5-carboxamide] | significantly reduced | significant improvement | significantly improved | reduced | 3 mg/kg | 67% | did not exhibit any significant agonist or antagonist activity | 200 µM (≈ 52.3 µg/mL) | ~200 µM (≈ 52.3 µg/mL) | 64% |  |  |  |  |  |  |  |  |  |  |
| O=C(c1ccc2nonc2c1)N1CCOCC1 [CX717, 1-(benzofurazan-5-ylcarbonyl)morpholine] |  |  |  |  |  |  |  |  |  |  | did not decrease the dose of PTZ required to elicit a seizure | significant decrease | prolonged action | no effect | 165 µM | 53% | dose-proportional manner | 9 to 10 h | 4 to 5 h | well-tolerated with no serious AEs |
